Results taken from paper PMC3894558, “Chemical signatures and new drug targets for gametocytocidal drug development” (Scientific Reports, 2014).
Where two headings read alike, the source gives them in different places.

Test system: P. falciparum 3D7 gametocytes
Assay: alamarBlue gametocyte viability assay, strain 3D7
Type: cell-based, Plasmodium falciparum
Settings: for Max Resp: DMSO set at 0%, 100 nM epoxomicin set at -100%; for Curve Class / IC50: stages III-V 3D7 gametocytes; for IC50: 11 concentrations, 1:3 dilution; call rule not given here

IC50 (Malaria Box, read-out: IC50) [µM] | IC50 (Malaria Box) | IC50 (Plasmodium falciparum, 3D7, Malaria Box, read-out: IC50) [µM] | Structure (SMILES) | Max Resp (Malaria Box) [%] | Curve Class (Malaria Box)
3.32 |  |  | CCOc1cc2c(cc1OCC)C(c1cc(OC)c(O)cc1Cl)NCC2 (stereo not drawn) [MMV008956] | -73 | -1.2
 | Inactive |  | CN1CCN(c2c3c(c(C#N)c4nc5ccccc5n24)CCC3)CC1 [MMV008127] | -5 | 4
 | Inactive |  | CCOC(=O)c1cnc2c(C)cccc2c1Nc1ccc(C(C)=O)cc1 [MMV006250] | 3 | 4
 | Inactive |  | CCCCCCOC(=O)C1=C(C)NC(=O)NC1c1ccccc1F (stereo not drawn) [MMV007686] | -2 | 4
 | Inactive |  | CC1CC(C)CN(C(=O)c2ccc(Cl)cc2Cl)C1 (stereo not drawn) [MMV001344] | -13 | 4
9.35 |  |  | COc1ccc(Nc2nc(NCc3ccccc3)c3ccccc3n2)cc1 [MMV000963] | -86 | -2.1
 | Inactive |  | C=CCc1c(C)nc2ccccc2c1O [MMV006913] | 0 | 4
 | Inactive |  | COc1cccc(Cn2c(Oc3ccccc3)nc3c2c(=O)n(C)c(=O)n3C)c1 [MMV396705] | -1 | 4
6.62 |  |  | COc1ccc(C2NCCc3c2[nH]c2ccccc32)cc1CN1CCN(c2ccc(F)cc2)CC1.Cl (stereo not drawn) [MMV019690] | -89 | -1.1
7.43 |  |  | CCOc1ccc(CN2CCN(CC(O)COc3ccc(OCC(O)CN4CCN(Cc5ccc(OCC)cc5)CC4)cc3)CC2)cc1 (stereo not drawn) [MMV007092] | -94 | -1.1
29.6 |  |  | COc1ccc2c(c1OC)C(=O)N1c3ccccc3N=C(c3ccc(C)cc3)CC21 (stereo not drawn) [MMV000917] | -63 | -2.2
1.48 |  |  | CCN(CC)CCn1c(=N)n(CC(O)c2ccc(Cl)c(Cl)c2)c2ccccc21.Cl (stereo not drawn) [MMV000248] | -99 | -1.1
3.32 |  |  | CC(C)CNC(=O)c1c(N)n(CCc2ccccc2F)c2nc3ccccc3nc12 [MMV396744] | -70 | -1.2
 | Inactive |  | Cc1ccc(N2C3c4ccccc4N(S(=O)(=O)c4ccc(C)cc4)C2c2ccccc2N3S(=O)(=O)c2ccc(C)cc2)cc1 [MMV007160] | -3 | 4
0.105 |  |  | Cl.Oc1ccccc1CNCC12CC3CC(CC(C3)C1)C2 [MMV020788] | -43 | -1.2
 | Inactive |  | O=C(Nc1ccc(Br)cc1)Nc1cccc(Cl)c1 [MMV001318] | -20 | 4
 | Inactive |  | Cc1ccc2nc(C)cc(Nc3cccc(C(F)(F)F)c3)c2c1.Cl [MMV000326] | -52 | -2.2
 | Inactive |  | Br.Cc1ccc(C)c(-c2csc(Nc3ccc(C)c(C)c3)n2)c1 [MMV007654] | -3 | 4
 | Inactive |  | FC(F)(F)c1ccc(Nc2nnnc3ccccc23)cc1 [MMV665935] | 25 | 4
 | Inactive |  | CN(C)c1ccc(N2C(N)=NC(N)=NC2(C)C)cc1 [MMV667487] | -4 | 4
20.9 |  |  | O=C(Nc1cccc(C(F)(F)F)c1)c1cc(Cl)ccc1O [MMV665807] | -84 | -2.1
 | Inactive |  | Cc1ccc(N2C(=O)C3C(C2=O)C2(c4ccccc4)C(=O)C3(c3ccccc3)C(c3ccccc3)=C2c2ccccc2)cc1 (stereo not drawn) [MMV666062] | 12 | 4
11.8 |  |  | CSc1ccccc1C(=O)Nc1nc(-c2ccccn2)cs1 [MMV001246] | -72 | -2.2
 | Inactive |  | Cc1cccc(N2C(=O)C3C(C2=O)C2(c4ccccc4)C(=O)C3(c3ccccc3)C(c3ccc4c(c3)OCO4)=C2c2ccc3c(c2)OCO3)c1 (stereo not drawn) [MMV007228] | -1 | 4
 | Inactive |  | O=C(O)C1Cc2c([nH]c3ccccc23)C(c2ccc(Cl)cc2Cl)N1 (stereo not drawn) [MMV008138] | -1 | 4
 | Inactive |  | Cc1cc(=O)oc2c1ccc1oc(C(=O)c3ccccc3)c(C)c12 [MMV006753] | 3 | 4
14.8 |  |  | CC(C)=CCN1CCC(C(=O)Nc2ccc(-c3nc4ccccc4[nH]3)cc2)CC1 [MMV665946] | -77 | -2.2
 | Inactive |  | Cc1ccccc1OCCSc1nc2ccc(NC(=O)c3cccs3)cc2s1 [MMV007396] | 23 | 4

IC50 (Malaria Box, read-out: IC50) [µM] | IC50 (Malaria Box) | IC50 (Plasmodium falciparum, 3D7, Malaria Box, read-out: IC50) [µM] | Structure (SMILES) | Max Resp (Malaria Box) [%] | Curve Class (Malaria Box)
 | Inactive |  | CCn1c(CN2CCN(Cc3ccccc3)CC2)nc2cc(NC(=O)c3cccs3)ccc21 [MMV020439] | -25 | 4
6.62 |  |  | COc1ccc(Nc2nc(N/N=C/c3ccc(O)cc3)nc(Nc3ccc([N+](=O)[O-])cc3)n2)cc1 [MMV666689] | -64 | -1.2
3.72 |  |  | CCN(CC)CCNc1ncnc2c1[nH]c1ccc(Cl)cc12 [MMV396703] | -81 | -1.1
 | Inactive |  | COc1ccc(C2N(C)c3ccccc3N2C)cc1 [MMV666075] | -34 | -2.4
 | Inactive |  | COc1ccc(N2CCN(C(CNC(=O)C3CCCCC3)c3ccc4c(c3)OCO4)CC2)cc1 (stereo not drawn) [MMV019662] | -21 | 4
 | Inactive |  | Cc1cc(N2CCN(C3CCCC3)CC2)n2c(nc3ccccc32)c1C#N [MMV006706] | -18 | 4
16.6 |  |  | CC1(c2ccccc2)Nc2ccccc2-c2nc3ccccc3n21 (stereo not drawn) [MMV396715] | -84 | -2.1
 | Inactive |  | Cc1ccc(Cn2c(N3CCC(C(=O)NCc4cccs4)CC3)nc3ccccc32)cc1 [MMV007564] | -54 | -2.2
 |  | 5.9 | CN(C)c1ccc(C(O)(c2ccc(N(C)C)cc2)c2ccc(N(C)C)cc2)cc1 [MMV665941] | -118 | -1.1
 | Inactive |  | O=C(CSc1ccc2nnc(-c3cccc(F)c3)n2n1)Nc1ccc2c(c1)OCO2 [MMV665918] | -14 | 4
4.18 |  |  | CCOc1ccc(-c2nonc2NC(=O)c2cccc(C)c2)cc1OCC [MMV665805] | -69 | -1.2
 | Inactive |  | COc1ccc(C(=O)Nc2ccc3nc(N4CCCCC4)cc(C)c3c2)cc1OC [MMV019758] | -32 | -3
 | Inactive |  | Cc1ccc(NC(=O)Nc2cccc(Cl)c2)cc1F [MMV000911] | -36 | -2.2
 | Inactive |  | CCCn1c(=N)c(C(=O)NC2CCCCC2)cc2c(=O)n3cccc(C)c3nc21 [MMV008829] | -26 | 4
 | Inactive |  | Cn1c(=O)c2cc(C(=O)NCCCN3CCCCCC3)sc2c2ccccc21 [MMV019313] | -46 | -2.2
3.32 |  |  | Cc1ccc(Nc2nc(NCCO)c3ccccc3n2)cc1C [MMV001038] | -71 | -1.2
 | Inactive |  | O=C(NCc1ccco1)C1CCN(S(=O)(=O)c2ccc(Br)cc2)CC1 [MMV007430] | 29 | 4
 | Inactive |  | CCCN(CCC)CCCNC(=O)c1cc2c(-c3ccc(OC)c(OC)c3)nn(C)c2s1 [MMV000561] | -52 | -2.2
 | Inactive |  | Cc1ccc(F)cc1NC(=O)c1cc(Cl)ccc1Nc1ccccc1 [MMV007275] | -41 | -2.2
37.2 |  |  | CCOc1cc(Br)c(C(C)NC(=O)c2cccc(OC)c2)cc1OCC (stereo not drawn) [MMV665796] | -58 | -2.2
 | Inactive |  | CCOc1ccc(CCNC(=O)c2cccs2)cc1OCC [MMV007978] | -13 | 4
 | Inactive |  | Clc1ccc2[nH]c3c(NCCCN4CCOCC4)ncnc3c2c1 [MMV006587] | -49 | -2.2
 | Inactive |  | O=C1c2ccccc2-c2nnc(-c3ccc(Br)cc3)cc21 [MMV665934] | 17 | 4
5.26 |  |  | Cc1ccc(-c2cc(C(=O)Nc3ccc(S(=O)(=O)N4CCCCC4)cc3)[nH]n2)c(O)c1 [MMV665906] | -61 | -1.2
 | Inactive |  | CCC(c1ccccc1)c1nn2c(-c3cccs3)nnc2s1 (stereo not drawn) [MMV665876] | -47 | -2.2
 | Inactive |  | COc1ccc(OC)c(C2C3=C(CC(C)(C)CC3=O)N(c3ccc(Cl)c(Cl)c3)C3=C2C(=O)CC(C)(C)C3)c1 [MMV007208] | -28 | 4
 | Inactive |  | CCOC(=O)c1cnc2c(C)cc(C)cc2c1Nc1ccc(OC)c(OC)c1 [MMV008294] | -8 | 4

Structure (SMILES) | IC50 (Malaria Box, read-out: IC50) [µM] | IC50 (Malaria Box) | IC50 (Plasmodium falciparum, 3D7, Malaria Box, read-out: IC50) [µM] | Max Resp (Malaria Box) [%] | Curve Class (Malaria Box)
CCCc1cc(O)c2c3c(c(=O)oc2c1)CN(C)CC3 [MMV665841] | 0.662 |  |  | -28 | -1.2
Cl.c1ccc2c(NCCCCCCNc3c4c(nc5ccccc35)CCCC4)c3c(nc2c1)CCCC3 [MMV019555] | 4.69 |  |  | -104 | -1.1
